Source: patent US6916812B2, “Alpha-aminoamide derivatives as melanocortin agonists” (Bristol-Myers Squibb Company, priority 2001, dated 2005)
Read-outs that look alike come from different tables or passages of the source.

Target: T1, cloned human MC4R (Homo sapiens, UniProt P32245)
T1 construct: made in house; host or cells: Hi5 insect cells (baculovirus infection); membrane preparation
Assay: Membrane binding assay: competitive inhibition of [125I]NDP-α-MSH binding
Details: for IC50: read-out: MC4R IC50; for inhibition at 10 µM: read-out: Displacement Rate (%) (at 10 μM)

[1] = at 10 μM, [125I]NDP-α-MSH displacement

T1 sequence (P32245 whole entry): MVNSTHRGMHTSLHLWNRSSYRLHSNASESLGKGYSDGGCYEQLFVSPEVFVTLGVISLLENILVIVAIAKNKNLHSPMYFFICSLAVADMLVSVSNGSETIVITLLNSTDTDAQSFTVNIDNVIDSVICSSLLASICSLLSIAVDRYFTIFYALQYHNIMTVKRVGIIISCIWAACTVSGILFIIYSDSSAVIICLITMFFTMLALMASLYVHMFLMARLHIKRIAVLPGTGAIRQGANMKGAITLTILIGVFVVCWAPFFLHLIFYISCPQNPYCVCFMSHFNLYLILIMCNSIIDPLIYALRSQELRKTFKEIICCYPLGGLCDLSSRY

In the case of `COc1ccc(CCCOc2ccc(C[C@H](N)C(=O)N3CCN(Cc4cccc(Cl)c4Cl)CC3)cc2)cc1` [Example 264], the “Displacement Rate (%) (at 10 μM)” value [1] is reported as “++ (++ = 71-90)” and the IC50 is reported as 1.5 to 3 µM.
With `COc1ccc(CCCOc2ccc(C[C@H](N)C(=O)N3CCN(Cc4cccc(Cl)c4Cl)CC3)cc2)cc1OC` [Example 265] the “Displacement Rate (%) (at 10 μM)” value [1] was “++ (++ = 71-90)” and the IC50 was < 1.5 µM.
With `CCN(CCOc1ccc(C[C@H](N)C(=O)N2CCN(Cc3cccc(Cl)c3Cl)CC2)cc1)c1cccc(C)c1` [Example 282] the “Displacement Rate (%) (at 10 μM)” value [1] was “+++ (+++ = 91-100)” and the IC50 was < 1.5 µM.
With `CN(CCOc1ccc(C[C@H](N)C(=O)N2CCN(Cc3cccc(Cl)c3Cl)CC2)cc1)Cc1ccccc1` [Example 285] the “Displacement Rate (%) (at 10 μM)” value [1] was “++ (++ = 71-90)” and the IC50 was 1.5 to 3 µM.
For `CN(CCCOc1ccc(C[C@H](N)C(=O)N2CCN(Cc3cccc(Cl)c3Cl)CC2)cc1)Cc1ccccc1` [Example 287], the “Displacement Rate (%) (at 10 μM)” value [1] was “+ (+ = 35-70)” and the IC50 was > 3 µM.
In the case of `N[C@@H](Cc1ccc(-c2ccccc2)cc1)C(=O)N1CCN(Cc2cccc(Cl)c2Cl)CC1` [Example 289], the IC50 is reported as < 1.5 µM.
For `Cc1ccc(-c2ccc(C[C@H](N)C(=O)N3CCN(Cc4cccc(Cl)c4Cl)CC3)cc2)cc1` [Example 290], the inhibition at 10 µM [1] was 91 to 100% and the IC50 was < 1.5 µM.
For `CCc1ccc(-c2ccc(C[C@H](N)C(=O)N3CCN(Cc4cccc(Cl)c4Cl)CC3)cc2)cc1` [Example 291], the inhibition at 10 µM [1] was 91 to 100% and the IC50 was < 1.5 µM.
In the case of `N[C@@H](Cc1ccc(-c2ccc(OC(F)(F)F)cc2)cc1)C(=O)N1CCN(Cc2cccc(Cl)c2Cl)CC1` [Example 292], the inhibition at 10 µM [1] is reported as 91 to 100% and the IC50 is reported as < 1.5 µM.
For `N[C@@H](Cc1ccc(-c2ccc3ccccc3c2)cc1)C(=O)N1CCN(Cc2cccc(Cl)c2Cl)CC1` [Example 293], the inhibition at 10 µM [1] was 91 to 100% and the IC50 was < 1.5 µM.
`N[C@@H](Cc1ccc(-c2ccc(Cl)c(Cl)c2)cc1)C(=O)N1CCN(Cc2cccc(Cl)c2Cl)CC1` [Example 294] was tested, and the inhibition at 10 µM [1] was 91 to 100% and the IC50 was < 1.5 µM.
With `CSc1ccc(-c2ccc(C[C@H](N)C(=O)N3CCN(Cc4cccc(Cl)c4Cl)CC3)cc2)cc1` [Example 295] the inhibition at 10 µM [1] was 91 to 100% and the IC50 was < 1.5 µM.
For `N[C@@H](Cc1ccc(-c2ccc(F)cc2)cc1)C(=O)N1CCN(Cc2cccc(Cl)c2Cl)CC1` [Example 296], the inhibition at 10 µM [1] was 91 to 100% and the IC50 was < 1.5 µM.
`N[C@@H](Cc1ccc(-c2cc(C(F)(F)F)cc(C(F)(F)F)c2)cc1)C(=O)N1CCN(Cc2cccc(Cl)c2Cl)CC1` [Example 297] was tested, and the inhibition at 10 µM [1] was 91 to 100% and the IC50 was < 1.5 µM.
In the case of `N[C@@H](Cc1ccc(-c2ccc(Cl)cc2)cc1)C(=O)N1CCN(Cc2cccc(Cl)c2Cl)CC1` [Example 298], the inhibition at 10 µM [1] is reported as 91 to 100% and the IC50 is reported as < 1.5 µM.
`N[C@@H](Cc1ccc(-c2cccc(Cl)c2Cl)cc1)C(=O)N1CCN(Cc2cccc(Cl)c2Cl)CC1` [Example 299] was tested, and the inhibition at 10 µM [1] was 91 to 100% and the IC50 was < 1.5 µM.
In the case of `N[C@@H](Cc1ccc(-c2cccc3ccccc23)cc1)C(=O)N1CCN(Cc2cccc(Cl)c2Cl)CC1` [Example 300], the inhibition at 10 µM [1] is reported as 91 to 100% and the IC50 is reported as < 1.5 µM.
In the case of `N[C@@H](Cc1ccc(-c2cccc(Cl)c2)cc1)C(=O)N1CCN(Cc2cccc(Cl)c2Cl)CC1` [Example 301], the inhibition at 10 µM [1] is reported as 91 to 100% and the IC50 is reported as < 1.5 µM.
With `N[C@@H](Cc1ccc(-c2ccc(Oc3ccccc3)cc2)cc1)C(=O)N1CCN(Cc2cccc(Cl)c2Cl)CC1` [Example 302] the inhibition at 10 µM [1] was 91 to 100% and the IC50 was < 1.5 µM.
For `N[C@@H](Cc1ccc(-c2ccc(C(F)(F)F)cc2)cc1)C(=O)N1CCN(Cc2cccc(Cl)c2Cl)CC1` [Example 304], the inhibition at 10 µM [1] was 91 to 100% and the IC50 was < 1.5 µM.
For `CC(C)(C)c1ccc(-c2ccc(C[C@H](N)C(=O)N3CCN(Cc4cccc(Cl)c4Cl)CC3)cc2)cc1` [Example 305], the inhibition at 10 µM [1] was 91 to 100% and the IC50 was < 1.5 µM.
`N[C@@H](Cc1ccc(-c2ccc(F)c(Cl)c2)cc1)C(=O)N1CCN(Cc2cccc(Cl)c2Cl)CC1` [Example 306] was tested, and the inhibition at 10 µM [1] was 91 to 100% and the IC50 was < 1.5 µM.
In the case of `N[C@@H](Cc1ccc(-c2ccc(Cl)cc2Cl)cc1)C(=O)N1CCN(Cc2cccc(Cl)c2Cl)CC1` [Example 307], the inhibition at 10 µM [1] is reported as 91 to 100% and the IC50 is reported as < 1.5 µM.
For `CCOc1cccc(-c2ccc(C[C@H](N)C(=O)N3CCN(Cc4cccc(Cl)c4Cl)CC3)cc2)c1` [Example 308], the inhibition at 10 µM [1] was 91 to 100% and the IC50 was < 1.5 µM.
In the case of `N[C@@H](Cc1ccc(-c2ccccc2F)cc1)C(=O)N1CCN(Cc2cccc(Cl)c2Cl)CC1` [Example 309], the inhibition at 10 µM [1] is reported as 91 to 100% and the IC50 is reported as < 1.5 µM.
With `CCOc1ccc(-c2ccc(C[C@H](N)C(=O)N3CCN(Cc4cccc(Cl)c4Cl)CC3)cc2)cc1` [Example 310] the inhibition at 10 µM [1] was 91 to 100% and the IC50 was < 1.5 µM.
For `N[C@@H](Cc1ccc(-c2cccc(F)c2)cc1)C(=O)N1CCN(Cc2cccc(Cl)c2Cl)CC1` [Example 311], the inhibition at 10 µM [1] was 91 to 100% and the IC50 was < 1.5 µM.
`N[C@@H](Cc1ccc(-c2cc(Cl)cc(Cl)c2)cc1)C(=O)N1CCN(Cc2cccc(Cl)c2Cl)CC1` [Example 312] showed an inhibition at 10 µM [1] of 91 to 100% and an IC50 of 1.5 to 3 µM.
In the case of `Cc1ccccc1-c1ccc(C[C@H](N)C(=O)N2CCN(Cc3cccc(Cl)c3Cl)CC2)cc1` [Example 313], the inhibition at 10 µM [1] is reported as 91 to 100% and the IC50 is reported as 1.5 to 3 µM.
With `N[C@@H](Cc1ccc(-c2ccc(-c3ccccc3)cc2)cc1)C(=O)N1CCN(Cc2cccc(Cl)c2Cl)CC1` [Example 314] the inhibition at 10 µM [1] was 91 to 100% and the IC50 was 1.5 to 3 µM.
With `N[C@@H](Cc1ccc(-c2ccccc2C(F)(F)F)cc1)C(=O)N1CCN(Cc2cccc(Cl)c2Cl)CC1` [Example 315] the inhibition at 10 µM [1] was 91 to 100% and the IC50 was 1.5 to 3 µM.
Compound `COc1ccc(-c2ccc(C[C@H](N)C(=O)N3CCN(Cc4cccc(Cl)c4Cl)CC3)cc2)cc1` [Example 317] has an inhibition at 10 µM [1] of 91 to 100% and an IC50 of 1.5 to 3 µM.
Compound `Cc1cccc(-c2ccc(C[C@H](N)C(=O)N3CCN(Cc4cccc(Cl)c4Cl)CC3)cc2)c1` [Example 318] has an inhibition at 10 µM [1] of 91 to 100% and an IC50 of 1.5 to 3 µM.
`N[C@@H](Cc1ccc(-c2ccc3c(c2)OCO3)cc1)C(=O)N1CCN(Cc2cccc(Cl)c2Cl)CC1` [Example 319] was tested, and the “Displacement Rate (%) (at 10 μM)” value [1] was “++ (++ = 71-90)” and the IC50 was 1.5 to 3 µM.
In the case of `COc1ccc(OC)c(-c2ccc(C[C@H](N)C(=O)N3CCN(Cc4cccc(Cl)c4Cl)CC3)cc2)c1` [Example 320], the “Displacement Rate (%) (at 10 μM)” value [1] is reported as “+++ (+++ = 91-100)” and the IC50 is reported as 1.5 to 3 µM.
`N[C@@H](Cc1ccc(-c2ccccc2Cl)cc1)C(=O)N1CCN(Cc2cccc(Cl)c2Cl)CC1` [Example 321] showed an inhibition at 10 µM [1] of 91 to 100% and an IC50 of 1.5 to 3 µM.
With `COc1ccc(-c2ccc(C[C@H](N)C(=O)N3CCN(Cc4cccc(Cl)c4Cl)CC3)cc2)c(OC)c1` [Example 322] the “Displacement Rate (%) (at 10 μM)” value [1] was “++ (++ = 71-90)” and the IC50 was 1.5 to 3 µM.
`CN(C)c1ccc(-c2ccc(C[C@H](N)C(=O)N3CCN(Cc4cccc(Cl)c4Cl)CC3)cc2)cc1` [Example 323] was tested, and the inhibition at 10 µM [1] was 71 to 90% and the IC50 was 1.5 to 3 µM.
With `N[C@@H](Cc1ccc(-c2c(Cl)cccc2Cl)cc1)C(=O)N1CCN(Cc2cccc(Cl)c2Cl)CC1` [Example 324] the inhibition at 10 µM [1] was 91 to 100% and the IC50 was 1.5 to 3 µM.
With `COc1cccc(-c2ccc(C[C@H](N)C(=O)N3CCN(Cc4cccc(Cl)c4Cl)CC3)cc2)c1` [Example 325] the inhibition at 10 µM [1] was 71 to 90% and the IC50 was 1.5 to 3 µM.
With `COc1ccccc1-c1ccc(C[C@H](N)C(=O)N2CCN(Cc3cccc(Cl)c3Cl)CC2)cc1` [Example 326] the inhibition at 10 µM [1] was 71 to 90% and the IC50 was 1.5 to 3 µM.
For `COc1ccc(Cl)cc1-c1ccc(C[C@H](N)C(=O)N2CCN(Cc3cccc(Cl)c3Cl)CC2)cc1` [Example 327], the “Displacement Rate (%) (at 10 μM)” value [1] was “+++ (+++ = 91-100)” and the IC50 was 1.5 to 3 µM.
`CC(=O)c1cccc(-c2ccc(C[C@H](N)C(=O)N3CCN(Cc4cccc(Cl)c4Cl)CC3)cc2)c1` [Example 328] was tested, and the inhibition at 10 µM [1] was 71 to 90% and the IC50 was 1.5 to 3 µM.
With `N[C@@H](Cc1ccc(-c2ccc(C(=O)O)cc2)cc1)C(=O)N1CCN(Cc2cccc(Cl)c2Cl)CC1` [Example 329] the inhibition at 10 µM [1] was 71 to 90% and the IC50 was > 3 µM.
With `N[C@@H](Cc1ccc(-c2cccc([N+](=O)[O-])c2)cc1)C(=O)N1CCN(Cc2cccc(Cl)c2Cl)CC1` [Example 330] the inhibition at 10 µM [1] was 71 to 90% and the IC50 was > 3 µM.
`COc1ccc(-c2ccc(C[C@H](N)C(=O)N3CCN(Cc4cccc(Cl)c4Cl)CC3)cc2)cc1OC` [Example 331] was tested, and the “Displacement Rate (%) (at 10 μM)” value [1] was “+ (+ = 35-70)” and the IC50 was > 3 µM.
For `CC(C)c1ccc(-c2ccc(C[C@H](N)C(=O)N3CCN(Cc4cccc(Cl)c4Cl)CC3)cc2)cc1` [Example 332], the inhibition at 10 µM [1] was 35 to 70% and the IC50 was > 3 µM.
For `Nc1cccc(-c2ccc(C[C@H](N)C(=O)N3CCN(Cc4cccc(Cl)c4Cl)CC3)cc2)c1` [Example 333], the inhibition at 10 µM [1] was 71 to 90% and the IC50 was > 3 µM.
`COc1cc(-c2ccc(C[C@H](N)C(=O)N3CCN(Cc4cccc(Cl)c4Cl)CC3)cc2)cc(OC)c1OC` [Example 334] was tested, and the inhibition at 10 µM [1] was 35 to 70% and the IC50 was > 3 µM.
With `N[C@@H](Cc1ccc(-c2cccc3c2Sc2ccccc2O3)cc1)C(=O)N1CCN(Cc2cccc(Cl)c2Cl)CC1` [Example 335] the inhibition at 10 µM was 91 to 100% and the IC50 was < 1.5 µM.
With `N[C@@H](Cc1ccc(-c2cccc3c2oc2ccccc23)cc1)C(=O)N1CCN(Cc2cccc(Cl)c2Cl)CC1` [Example 336] the inhibition at 10 µM was 91 to 100% and the IC50 was < 1.5 µM.
For `N[C@@H](Cc1ccc(-c2cccc3c2sc2ccccc23)cc1)C(=O)N1CCN(Cc2cccc(Cl)c2Cl)CC1` [Example 337], the inhibition at 10 µM was 91 to 100% and the IC50 was < 1.5 µM.
With `N[C@@H](Cc1ccc(-c2cc3ccccc3s2)cc1)C(=O)N1CCN(Cc2cccc(Cl)c2Cl)CC1` [Example 338] the inhibition at 10 µM was 91 to 100% and the IC50 was < 1.5 µM.
For `N[C@@H](Cc1ccc(-c2ccsc2)cc1)C(=O)N1CCN(Cc2cccc(Cl)c2Cl)CC1` [Example 339], the inhibition at 10 µM was 91 to 100% and the IC50 was < 1.5 µM.
`N[C@@H](Cc1ccc(-c2cccc3cccnc23)cc1)C(=O)N1CCN(Cc2cccc(Cl)c2Cl)CC1` [Example 340] was tested, and the inhibition at 10 µM was 71 to 90% and the IC50 was 1.5 to 3 µM.
In the case of `N[C@@H](Cc1ccc(-c2cnc3ccccc3c2)cc1)C(=O)N1CCN(Cc2cccc(Cl)c2Cl)CC1` [Example 341], the inhibition at 10 µM is reported as 71 to 90% and the IC50 is reported as 1.5 to 3 µM.
